Source: paper PMC9747717, “A novel small molecule inhibitor of human Drp1” (Scientific Reports, 2022)

What was measured:
HL-1 cells = assay: Mitochondrial morphology in HL-1 cells under simulated ischaemia-reperfusion injury; assay type: cell-based, Murine; conditions: 50 µM, DMSO 63.14 ± 8.12%
Experimental: HL-1 cells were plated in 24-well plate pre-coated with 5 μg/mL human fibronectin (Merck Millipore, MA, USA) in 0.02% porcine gelatin solution (Sigma-Aldrich, MA, USA). Cells were maintained in Claycomb media (Sigma-Aldrich) supplemented with 0.1 mM (±)-norepinephrine (+)-bitartrate salt (Sigma-Aldrich), 2 mM GlutaMAX (Thermo Fisher Scientific, MA, USA), 100 μg/mL penicillin/streptomycin (Thermo Fisher Scientific) and 10% non-heat inactivated foetal bovine serum (FBS) (Bovogen Biologicals, Victoria, Australia). The simulated ischaemia–reperfusion injury was performed as described in Rosdah et al.[25]. […] Cell death was determined by staining with 1 μg/mL propidium iodide and 3 μg/mL Hoechst 33258. The number of dead cells (propidium iodide positive) was counted and expressed as a percentage over total number of cells (Hoechst 33258 positive). At least 100 cells were counted per group for each independent experiment.
Mitochondrial morphology in HL-1 cells were visualised by immunostaining of mitochondrial Hsp60 antibody (Abcam, MA, USA). Images were acquired using Olympus BX60 fluorescence microscope at 600 × magnification and analysed using Fiji imaging software (ImageJ v1.53c). […] At least 100 cells were analysed for each treatment group.

human Drp1 isoform 3 = target: T1, human Drp1 isoform 3 (Homo sapiens, UniProt O00429); assay: Drp1 GTPase activity, colorimetric malachite green assay; assay type: biochemical
T1 construct: His tag; made in house; host or cells: E. coli Rosetta (DE3), pET21b vector
Experimental: The GTPase activity of Drp1, which is required for the latter to mediate mitochondrial fission, was examined using the colorimetric GTPase assay kit (Innova Biosciences, Cambridge, UK) according to the manufacturer’s instructions. Compounds were diluted in DMSO (all with a final concentration of 0.1% DMSO). Recombinant human Drp1 protein isoform-3 (final concentration 0.25 ng/µL) was diluted in assay buffer containing 50 mM Tris HCl (pH 7.5) and 2.5 mM MgCl2, followed by incubation with compounds for 15 min at 37 °C in a 96 well plate. 0.5 mM GTP, diluted in assay buffer, was then added into the mixture followed by incubation at 37 °C for 30 min.
Upon binding to Drp1, GTP is hydrolysed into GDP and free phosphate (Pi)[24]. Therefore, the degree of GTPase inhibition was assessed by measuring the concentration of Pi released into the assay buffer, which is detected by a malachite green-based dye. The intensity of Pi-dye complex was assessed by measuring the light absorbance at 635 nm wavelength using a microplate reader (BenchMark Plus, MS, USA). Absorbance of each experimental group was normalised to the vehicle control (DMSO).

Drp1 wild type MEFs = assay: Mitochondrial morphology analysis in Drp1 wild type MEF; assay type: cell-based, mouse; conditions: statistical significance at 10 and 50 µM
Experimental: Human foreskin fibroblasts and Drp1 wildtype and KO MEF (kindly provided by Professor Hiromi Sesaki, Johns Hopkins University, USA)[28],[29] were transduced with pAS2.EYFP.puro lentiviruses (RNAiCore, Academia Sinica, Taiwan) carrying the mitochondrial-targeted EGFP sequence as described in Kalkhoran et al.[30]. Cells were then treated with DRP1i27 (5, 10 or 50 µM) or 0.1% DMSO vehicle control for 24 h.
Mitochondrial morphology in HL-1 cells were visualised by immunostaining of mitochondrial Hsp60 antibody (Abcam, MA, USA). Images were acquired using Olympus BX60 fluorescence microscope at 600 × magnification and analysed using Fiji imaging software (ImageJ v1.53c). Cells were categorised into predominantly (> 50%) having fused or fragmented mitochondria. At least 100 cells were analysed for each treatment group.

T1 sequence (O00429 1-699 isoform O00429-4): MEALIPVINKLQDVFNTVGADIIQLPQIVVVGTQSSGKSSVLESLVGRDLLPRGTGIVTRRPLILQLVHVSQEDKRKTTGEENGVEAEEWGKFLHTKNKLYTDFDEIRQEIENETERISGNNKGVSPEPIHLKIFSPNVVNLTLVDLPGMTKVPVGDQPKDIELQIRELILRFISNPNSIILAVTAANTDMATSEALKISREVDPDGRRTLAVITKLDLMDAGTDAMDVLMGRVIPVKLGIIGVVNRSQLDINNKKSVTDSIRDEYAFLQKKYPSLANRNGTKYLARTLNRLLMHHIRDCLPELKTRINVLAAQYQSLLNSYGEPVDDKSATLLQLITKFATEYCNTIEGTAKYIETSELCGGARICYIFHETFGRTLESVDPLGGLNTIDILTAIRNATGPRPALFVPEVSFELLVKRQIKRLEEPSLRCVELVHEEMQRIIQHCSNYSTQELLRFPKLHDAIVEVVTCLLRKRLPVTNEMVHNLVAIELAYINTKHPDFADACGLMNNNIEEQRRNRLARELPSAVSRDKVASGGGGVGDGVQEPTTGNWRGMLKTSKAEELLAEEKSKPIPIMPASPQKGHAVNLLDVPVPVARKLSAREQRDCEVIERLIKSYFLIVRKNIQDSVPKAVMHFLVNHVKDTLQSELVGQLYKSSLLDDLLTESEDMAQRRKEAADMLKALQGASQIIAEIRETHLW

**Q.** What does the source list for `Cc1nc[nH]c1CN1C[C@@H]2CC[C@H](C1)N(Cc1ccc(-c3cc[nH]n3)o1)C2` [DRP1i27]?
**A.** percentage of cells with fragmented mitochondria (HL-1 cells): 36.62 ± 7.37%; inhibition of GTPase activity of human Drp1 (human Drp1 isoform 3; 5 µM): statistically significant reduction; inhibition of the conversion of GTP to GDP (human Drp1 isoform 3; 5–50 µM): trend of inhibition; cellular networks of mitochondria (Drp1 wild type MEFs): dose-dependent response
